Results as given in ChEMBL document CHEMBL1201862, “PubChem BioAssay data set” (2004).
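Each compound was tested at five concentrations against cells in 96-well plates for 48 hours. GI50 = concentration required for 50% inhibition of growth.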 Calls of active or inactive are those of the source. Rule as the data show it: active = GI50 up to about 1.1 µM and inactive = higher.

Legend:
Assay in all cases: NCI-60 cell line screen, 48 h
MDA-MB-231 = test system: MDA-MB-231
HOP-62 = test system: HOP-62
HOP-92 = test system: HOP-92
IGROV-1 = test system: IGROV-1
A498 = test system: A498
UACC-62 = test system: UACC-62
T47D = test system: T47D
SW-620 = test system: SW-620
SK-MEL-2 = test system: SK-MEL-2
SF-268 = test system: SF-268
DU-145 = test system: DU-145
OVCAR-3 = test system: OVCAR-3
M14 = test system: M14
OVCAR-8 = test system: OVCAR-8
PC-3 = test system: PC-3
CAKI-1 = test system: CAKI-1
HT-29 = test system: HT-29
NCI-H522 = test system: NCI-H522
K562 = test system: K562
HL-60 = test system: HL-60

Measured: GI50

Fc1ccc2nc3n(c2c1)C(c1c(Cl)cccc1Cl)SC3 (stereo unspecified)
inactive: MDA-MB-231 > 100 µM | HOP-62 > 100 µM | HOP-92 50.4 µM | IGROV-1 > 100 µM | A498 > 100 µM | UACC-62 > 100 µM | T47D > 100 µM | SW-620 > 100 µM | SK-MEL-2 > 100 µM | SF-268 > 100 µM | DU-145 > 100 µM | OVCAR-3 > 100 µM | M14 > 100 µM | OVCAR-8 > 100 µM | PC-3 > 100 µM | CAKI-1 > 100 µM | HT-29 > 100 µM | NCI-H522 29.4 µM

O=C(OCc1ccccc1)N1CCN(C(=O)OCc2ccccc2)CCN(C(=O)OCc2ccccc2)CCN(C(=O)OCc2ccccc2)CCN(C(=O)OCc2ccccc2)CC1
inactive: MDA-MB-231 39.5 µM | HOP-62 65 µM | HOP-92 70.5 µM | A498 > 100 µM | UACC-62 > 100 µM | T47D > 100 µM | SW-620 > 100 µM | SK-MEL-2 > 100 µM | DU-145 > 100 µM | OVCAR-3 > 100 µM | M14 35.3 µM | OVCAR-8 > 100 µM | PC-3 > 100 µM | CAKI-1 > 100 µM | NCI-H522 68.2 µM

CC1(C)C2CCC1(C)C(NC(=O)COCCOCC(N)=O)C2 (stereo unspecified)
inactive: MDA-MB-231 > 100 µM | HOP-62 > 100 µM | HOP-92 > 100 µM | IGROV-1 > 100 µM | K562 32.1 µM | A498 > 100 µM | UACC-62 > 100 µM | T47D > 100 µM | SW-620 > 100 µM | SF-268 > 100 µM | DU-145 > 100 µM | OVCAR-3 > 100 µM | M14 > 100 µM | OVCAR-8 > 100 µM | HL-60 56.2 µM | PC-3 > 100 µM | CAKI-1 > 100 µM | HT-29 > 100 µM | NCI-H522 > 100 µM

COc1cccc2c(NNc3ccccc3)c3ccc([N+](=O)[O-])cc3nc12
inactive: MDA-MB-231 43.6 µM | HOP-62 60.4 µM | HOP-92 26.4 µM | IGROV-1 21.7 µM | K562 83.4 µM | A498 43.5 µM | UACC-62 6.41 µM | T47D 36.4 µM | SW-620 24.9 µM | SK-MEL-2 25.8 µM | SF-268 19.6 µM | DU-145 73.6 µM | OVCAR-3 50.2 µM | M14 24 µM | OVCAR-8 31.1 µM | PC-3 14.7 µM | CAKI-1 12 µM | HT-29 23.6 µM | NCI-H522 24.7 µM
